Consider 9 compounds from PubChem BioAssay (NCI).

Common to all, as to assay: NCI anticancer screen, dose series, 48 h
Experiment [1] has as its system K-562 leukemia.
The test system of experiment [2] is HCC-2998 colon.
Experiment [3] deals with SW-620 colon.
Experiment [4] deals with SK-MEL-28 melanoma.
Experiment [5] relates to MCF7 breast.
Experiment [6] deals with SN12C renal.
In experiment [7] the test system is SF-539 CNS.
The test system of experiment [8] is OVCAR-5 ovarian.
Experiment [9] deals with NCI/ADR-RES ovarian.
Experiment [10] has as its system SNB-75 CNS.
For experiment [11], the system named is EKVX NSCLC.
The test system of experiment [12] is LOX IMVI melanoma.
Experiment [13] relates to M14 melanoma.
The subject of experiment [14] is 786-0 renal.

SMILES strings stand for the structures. Values joined by “and” are separate entries in the source; they are usually repeats but may differ in a detail not shown here. Identical values can stand only once.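 These data come from cells grown in 96-well plates and exposed to compound for 48 hours at five concentrations. The concentration for 50% growth inhibition is given as GI50. TGI is the concentration that stops growth completely.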 Bounds are passed on as bounds.

Take `CC(=O)Oc1c(OC(C)=O)c(-c2ccc(O)c(O)c2)c(O)c(O)c1-c1ccc(O)cc1`: the TGI was more than 100 µM in experiment [1]; more than 100 µM in experiment [2]; more than 100 µM in experiment [3]; more than 100 µM in experiment [4]; 35.9 µM and > 100 µM in [5]; more than 100 µM in experiment [6]. For the same compound, the TGI is more than 100 µM in experiment [7]; more than 100 µM in [8]; more than 100 µM in [9]; more than 100 µM in experiment [10]; more than 100 µM in experiment [11]; 94 µM and 95.9 µM in experiment [12]. The GI50 is 18.8 µM in experiment [5] and 73.8 µM in experiment [6].

Consider `CN1OC(=O)N(C)C1c1ccccc1` (configuration not stated), for which the TGI in experiment [1], in [2], in [3], in [4], in [5] and in experiment [6] was more than 100 µM throughout. Also, the TGI in experiment [7], in [8], in experiment [9], in [10], in experiment [11] and in [12] was more than 100 µM throughout.

Take `Nc1ccn(C2OC(COP(=O)(O)Oc3ccccc3)C(O)C2O)c(=O)n1` (configuration not stated): the TGI in experiment [1], in experiment [2], in experiment [3], in experiment [4], in experiment [5] and in experiment [6] was more than 100 µM throughout. Moreover, the TGI in experiment [7], in experiment [8], in experiment [9], in experiment [10], in experiment [11] and in experiment [12] was more than 100 µM each time.

Regarding `COc1cc(CC2c3cc(OC)c(OC)cc3CCN2C)c(Oc2cc3c(cc2OC)-c2c(OC)c(OC)c(OC)c4c2C(C3)N(C)CC4)cc1OC` (configuration not stated), the TGI was more than 30.5 µM in experiment [1]; 13.7 µM in experiment [2]; 30.7 µM in experiment [3]; 22.8 µM in [4]; 28.6 µM in experiment [6]; 5.76 µM in experiment [13]. For the same compound, the TGI in [7] stood at 25.8 µM; in experiment [8], 30.6 µM; in experiment [10], 25 µM; in [14], 21.5 µM; in experiment [11], 31.1 µM; in experiment [12], 22.6 µM.

On to `CNC(=O)CN1CC(=O)N(C)C(=O)C1`, for which the TGI in experiment [1], in experiment [2], in [3], in experiment [4], in [13] and in experiment [8] was more than 100 µM in each case. The TGI in experiment [10] and in experiment [12] was more than 100 µM each time.

Take `CCN(CC)CCNc1ccc(C)c2sc3ccc(O)cc3c(=O)c12`: the TGI in experiment [1] was 3.62 µM; in experiment [2], 2.66 µM; in experiment [3] it was 2.38 µM; in [4] it was 2.96 µM; in experiment [6], 1.85 µM; in experiment [13] it was 2.48 µM. Besides, the TGI turned out to be 2.5 µM in [7]; 9.3 µM in [8]; 4.3 µM in experiment [10]; 2.01 µM in experiment [14]; 25.9 µM in experiment [11]; 2.18 µM in [12].

`C=C1C(=O)OC2/C=C(\C)C(O)/C=C\C(C)(O)CC(OC(=O)/C(C)=C/C)C12` (configuration not stated): the TGI was more than 84.6 µM in experiment [1]; more than 100 µM in experiment [2]; 34.4 µM in [3]; 35.4 µM in [4]; 53.5 µM in experiment [6]; 32.7 µM in experiment [13]. The TGI in experiment [7] is 20.7 µM; in experiment [8] it was more than 100 µM; in [10], more than 100 µM; in experiment [14] it was 38 µM; in experiment [11], 77.9 µM; in experiment [12], 36.6 µM.

Consider `COc1ccc2c(c1)c1cc(OC)ccc1n2CCCCOc1ccc(-c2c3ccccc3c(-c3ccc(OCCCCn4c5ccc(OC)cc5c5cc(OC)ccc54)cc3)c3ccccc23)cc1`, for which the TGI in experiment [1], in [2], in experiment [3], in [4], in [6] and in experiment [13] was more than 100 µM throughout. Further, the TGI in [7], in experiment [8], in experiment [10], in experiment [11] and in experiment [12] was more than 100 µM each time.

As to `COc1cc2c(cc1OC)C(Cl)C(c1cc(OC)c(OC)c(OC)c1)=C2Cl` (configuration not stated), the TGI in experiment [1] was more than 100 µM; in [3], 46.1 µM; in [4], 31.9 µM; in experiment [6], 36.6 µM; in [13], 35.2 µM; in experiment [7], 26.7 µM. Also, the TGI was 18.1 µM in [10], 79.4 µM in experiment [11] and 30.2 µM in experiment [12].
